Results on 15 molecules are retold here after PubChem BioAssay (NCI).

Test systems include HOP-62 NSCLC; SK-MEL-28 melanoma; MALME-3M melanoma; TK-10 renal; SK-OV-3 ovarian; HL-60(TB) leukemia; MCF7 breast; KM12 colon; SNB-19 CNS; LOX IMVI melanoma.
Common to all, as to test: NCI anticancer screen, dose series, 48 h

SMILES strings stand for the structures.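 1) Cells in 96-well plates. 2) Compound, 48 h, 5 concentrations. 3) Linear interpolation between surrounding doses. 4) Unreached endpoint = highest concentration. The concentration for 50% growth inhibition is given as GI50. TGI: concentration producing complete growth inhibition.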

Take `COc1ccc(/C=C/c2cc(O)cc(OC3OC(CO)C(O)C(O)C3O)c2)cc1O` (centres undefined): the TGI with HOP-62 NSCLC, in the test with SK-MEL-28 melanoma, in the test with MALME-3M melanoma, in the test with TK-10 renal, with SK-OV-3 ovarian and in the test on HL-60(TB) leukemia was above 100 µM each time. The TGI with MCF7 breast is above 100 µM; in the test with KM12 colon, 86.5 µM; in the test on SNB-19 CNS, above 100 µM; in the test on LOX IMVI melanoma it was above 100 µM.
`Nc1ccc(C2(c3ccc(N)cc3)C3CC4CC(C3)CC2C4)cc1`: the TGI in the test on HOP-62 NSCLC is 29.3 µM; in the test on SK-MEL-28 melanoma, above 100 µM; in the test with TK-10 renal, 32.2 µM; in the test on SK-OV-3 ovarian, 30 µM; in the test on HL-60(TB) leukemia it was 46.6 µM; with MCF7 breast, 43.7 µM. For the same molecule, the TGI is 25.3 µM in the test on KM12 colon, 33.3 µM in the test with SNB-19 CNS and 39.7 µM with LOX IMVI melanoma.
Regarding `O=C(N[C@H](CO)[C@H](O)c1ccc([N+](=O)[O-])cc1)C(Cl)Cl`, the TGI in the test on HOP-62 NSCLC, in the test with SK-MEL-28 melanoma, in the test on MALME-3M melanoma, in the test with TK-10 renal, with SK-OV-3 ovarian and in the test with HL-60(TB) leukemia was above 100 µM throughout. The TGI in the test on MCF7 breast, with KM12 colon, in the test with SNB-19 CNS and in the test on LOX IMVI melanoma was above 100 µM in each case.
With `OCC1NC(CO)C(O)C1O` (centres undefined), the TGI in the test with HOP-62 NSCLC, in the test on SK-MEL-28 melanoma, in the test with MALME-3M melanoma, in the test with TK-10 renal, in the test with SK-OV-3 ovarian and with HL-60(TB) leukemia was above 100 µM throughout. In addition, the TGI in the test on MCF7 breast, with KM12 colon, in the test on SNB-19 CNS and in the test on LOX IMVI melanoma was above 100 µM throughout.
Turning to `COc1ncnc2c(Cl)c(C(O)c3ccccc3)c(Cl)cc12` (centres undefined), the TGI with HOP-62 NSCLC was 32.5 µM; in the test on SK-MEL-28 melanoma, above 100 µM; in the test with MALME-3M melanoma, 83 µM; in the test with TK-10 renal it was 63.4 µM; in the test with SK-OV-3 ovarian it was 49 µM; with HL-60(TB) leukemia, above 100 µM. In addition, the TGI with MCF7 breast was above 100 µM; in the test on KM12 colon, above 100 µM; in the test with SNB-19 CNS it was 79.9 µM; in the test on LOX IMVI melanoma it was above 100 µM.
For the molecule `CCOP(=O)(OCC)C(Cc1c[nH]c2ccccc12)C(=O)O` (centres undefined), the TGI in the test on HOP-62 NSCLC, in the test with SK-MEL-28 melanoma, in the test with TK-10 renal, with SK-OV-3 ovarian, in the test on HL-60(TB) leukemia and in the test with MCF7 breast was above 100 µM each time. Moreover, the TGI with SNB-19 CNS and with LOX IMVI melanoma was above 100 µM each time.
In the case of `O=S1(=O)C[C@H](NCc2ccccc2)[C@H](NCc2ccccc2)C1`, the TGI with HOP-62 NSCLC, in the test on SK-MEL-28 melanoma, in the test with MALME-3M melanoma, in the test on TK-10 renal, in the test on SK-OV-3 ovarian and with MCF7 breast was above 100 µM in each case. The TGI in the test on KM12 colon, in the test with SNB-19 CNS and with LOX IMVI melanoma was above 100 µM throughout.
In the case of `O=Nn1c2ccccc2c2ccccc21`, the TGI in the test with HOP-62 NSCLC, in the test on SK-MEL-28 melanoma, with MALME-3M melanoma, in the test on TK-10 renal, with SK-OV-3 ovarian and in the test with HL-60(TB) leukemia was above 100 µM each time. Besides, the TGI with MCF7 breast, in the test on KM12 colon, in the test on SNB-19 CNS and in the test on LOX IMVI melanoma was above 100 µM throughout.
Take `CC(C)N(CCNc1nc(C(Cl)(Cl)Cl)nc2cc(Cl)ccc12)C(C)C`: the GI50 in the test on HOP-62 NSCLC was 1.6 µM; in the test on SK-MEL-28 melanoma, 1.8 µM; in the test on MALME-3M melanoma, 1.83 µM; in the test with TK-10 renal, 1.46 µM; with HL-60(TB) leukemia it was 1.52 µM; in the test on MCF7 breast, 1.54 µM. Moreover, the figures for the GI50 in the test with KM12 colon and with SNB-19 CNS were 1.32 µM and 1.9 µM, respectively. Also, the TGI in the test on HOP-62 NSCLC amounted to 3.12 µM; with SK-MEL-28 melanoma it was 3.38 µM; in the test with MALME-3M melanoma it was 3.98 µM; in the test on TK-10 renal it was 2.88 µM; with HL-60(TB) leukemia, 3.6 µM; with MCF7 breast, 3.05 µM. In addition, the TGI in the test on KM12 colon amounted to 2.83 µM; in the test on SNB-19 CNS, 4.78 µM.
Take `CCOC(=O)CCCc1cc(=O)c2c(C)c3[nH]c4ccc(Cl)cc4c3c(C)c2[nH]1`: the TGI is 44.4 µM in the test with HOP-62 NSCLC; above 100 µM in the test with SK-MEL-28 melanoma; 73.2 µM in the test with MALME-3M melanoma; 48.8 µM with TK-10 renal; 82.3 µM in the test on HL-60(TB) leukemia; 47.4 µM in the test on MCF7 breast. The TGI was above 100 µM in the test on KM12 colon, 60.7 µM with SNB-19 CNS and above 100 µM in the test on LOX IMVI melanoma.
In the case of `Fc1ccc(C2CC(c3cccc(Nc4ccncc4)c3)=NN2c2ccccc2)cc1` (centres undefined), the GI50 in the test on SK-MEL-28 melanoma is 1.76 µM; in the test with MALME-3M melanoma, 1.6 µM; with TK-10 renal it was 1.99 µM; in the test with SK-OV-3 ovarian, 5.7 µM; in the test with HL-60(TB) leukemia it was 2.08 µM; in the test on MCF7 breast, 1.74 µM. Moreover, the GI50 is 1.63 µM with KM12 colon, 1.61 µM with SNB-19 CNS and 1.66 µM with LOX IMVI melanoma. Moreover, the TGI was 3.35 µM with SK-MEL-28 melanoma; 3.16 µM in the test on MALME-3M melanoma; 3.75 µM in the test on TK-10 renal; 19.9 µM in the test on SK-OV-3 ovarian; 4.49 µM in the test on HL-60(TB) leukemia; 3.48 µM in the test with MCF7 breast. The TGI in the test with KM12 colon worked out at 3.07 µM; in the test with SNB-19 CNS, 3.04 µM; in the test on LOX IMVI melanoma, 3.02 µM.
In the case of `CC=C/C=C/[C@@H]1O[C@](O)([C@H](CC)C(=O)NC/C=C/C=C(\C)[C@@H](OC)[C@@H](C)[C@@H]2O[C@H](/C=C/C=C/C=C(\C)C(=O)c3c(O)cc[nH]c3=O)[C@H](O)[C@@H]2O)[C@H](O)[C@H](O)C1(C)C`, the TGI in the test on HOP-62 NSCLC, with SK-MEL-28 melanoma, with MALME-3M melanoma, in the test with TK-10 renal, with SK-OV-3 ovarian and in the test on HL-60(TB) leukemia was above 100 µM in each case. Also, the TGI in the test on MCF7 breast, in the test with KM12 colon and in the test on SNB-19 CNS was above 100 µM throughout.
As to `O=C(Nc1ccc(C(F)(F)F)cc1[N+](=O)[O-])C(=O)Nn1c(=S)[nH]c2ccccc2c1=O`, the TGI in the test with HOP-62 NSCLC, in the test on SK-MEL-28 melanoma, with MALME-3M melanoma, with TK-10 renal, in the test with SK-OV-3 ovarian and in the test with HL-60(TB) leukemia was above 100 µM each time. Besides, the TGI in the test with KM12 colon, in the test on SNB-19 CNS and in the test with LOX IMVI melanoma was above 100 µM each time.
On to `Cc1ccc(S(=O)(=O)NCCCSCCN)cc1`, for which the TGI in the test with SK-MEL-28 melanoma, in the test on TK-10 renal, in the test on SK-OV-3 ovarian, with HL-60(TB) leukemia, in the test with MCF7 breast and in the test on KM12 colon was above 100 µM throughout. Also, the TGI in the test on SNB-19 CNS and in the test with LOX IMVI melanoma was above 100 µM in each case.
For `Nc1nc(N)c(N=Nc2ccccc2)c(=O)[nH]1`, the TGI was above 100 µM in the test on HOP-62 NSCLC; 87.7 µM with SK-MEL-28 melanoma; 69.6 µM in the test with MALME-3M melanoma; above 100 µM in the test on TK-10 renal; above 100 µM with SK-OV-3 ovarian; above 100 µM in the test with HL-60(TB) leukemia. The TGI in the test on KM12 colon, with SNB-19 CNS and in the test with LOX IMVI melanoma was above 100 µM throughout.
